Experimental data: ChEMBL document CHEMBL4325871 (Eur J Med Chem, 2019)
The source made the active and inactive calls. The rule behind the calls is not given here.

Experiments:
[1] = biological target: T1, Serine/threonine-protein kinase Chk1 (Homo sapiens) (UniProt O14757); test: Inhibition of hydroxyurea-induced CHK1 phosphorylation at S317 residue in human HCT116 cells at 20 uM treated for 8 hrs starting from 24 hrs post hydroxyurea addition by Western blot analysis; type: cell-based
T1 sequence (whole entry): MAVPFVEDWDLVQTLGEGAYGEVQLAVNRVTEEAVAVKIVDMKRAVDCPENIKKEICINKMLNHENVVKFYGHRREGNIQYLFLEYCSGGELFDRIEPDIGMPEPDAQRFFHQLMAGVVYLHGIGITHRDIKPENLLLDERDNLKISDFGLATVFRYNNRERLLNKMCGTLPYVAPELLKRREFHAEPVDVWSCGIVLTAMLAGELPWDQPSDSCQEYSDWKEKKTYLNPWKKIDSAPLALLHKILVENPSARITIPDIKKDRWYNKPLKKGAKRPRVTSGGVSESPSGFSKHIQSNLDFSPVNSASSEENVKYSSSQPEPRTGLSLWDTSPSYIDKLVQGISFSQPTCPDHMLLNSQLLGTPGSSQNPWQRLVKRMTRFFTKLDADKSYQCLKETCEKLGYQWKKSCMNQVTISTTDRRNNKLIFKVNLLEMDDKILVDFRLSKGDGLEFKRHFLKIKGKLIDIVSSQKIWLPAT

[2] = biological target: T1, Serine/threonine-protein kinase Chk1 (Homo sapiens); test: Inhibition of hydroxyurea-induced CHK1 phosphorylation at S345 residue in human HCT116 cells at 20 uM treated for 8 hrs starting from 24 hrs post hydroxyurea addition by Western blot analysis; type: cell-based
[3] = biological target: T1, Serine/threonine-protein kinase Chk1 (Homo sapiens); test: Inhibition of CHK1 phosphorylation at S317 residue in human HCT116 cells at 20 uM after 8 hrs by Western blot analysis; type: cell-based
[4] = biological target: T1, Serine/threonine-protein kinase Chk1 (Homo sapiens); test: Inhibition of CHK1 phosphorylation at S296 residue in human HCT116 cells at 20 uM after 8 hrs by Western blot analysis; type: cell-based
[5] = biological target: RAC-gamma serine/threonine-protein kinase (Homo sapiens) (UniProt Q9Y243); test: Inhibition of human AKT3 assessed as residual activity at 1 uM using KGSGSGRPRTSSFAEG as substrate by [gamma-33P]-ATP assay relative to control
[6] = biological target: Protein-tyrosine kinase 6 (Homo sapiens) (UniProt Q13882); test: Inhibition of human BRK assessed as residual activity at 1 uM using poly[Glu:Tyr](4:1) as substrate by [gamma-33P]-ATP assay relative to control
[7] = biological target: Cyclin-dependent kinase 2/cyclin E1 (Homo sapiens) (UniProt P24864+P24941); test: Inhibition of human CDK2/cyclin-E assessed as residual activity at 1 uM using histone H1 as substrate by [gamma-33P]-ATP assay relative to control; type: protein-complex assay
[8] = biological target: Inhibitor of nuclear factor kappa-B kinase subunit alpha (Homo sapiens) (UniProt O15111); test: Inhibition of human IKKalpha assessed as residual activity at 1 uM using KKKKERLLDDRHDSGLDSMKDEE as substrate by [gamma-33P]-ATP assay relative to control
[9] = biological target: Mitogen-activated protein kinase kinase kinase 9 (Homo sapiens) (UniProt P80192); test: Inhibition of human MLK1 assessed as residual activity at 1 uM using casein as substrate by [gamma-33P]-ATP assay relative to control
[10] = biological target: Serine/threonine-protein kinase 24 (Homo sapiens) (UniProt Q9Y6E0); test: Inhibition of human MST3 assessed as residual activity at 1 uM using MBP as substrate by [gamma-33P]-ATP assay relative to control
[11] = biological target: Myosin-IIIa (Homo sapiens) (UniProt Q8NEV4); test: Inhibition of human MYO3A assessed as residual activity at 1 uM using MBP as substrate by [gamma-33P]-ATP assay relative to control
[12] = biological target: Serine/threonine-protein kinase N1 (Homo sapiens) (UniProt Q16512); test: Inhibition of human PKN1 assessed as residual activity at 1 uM using KKLNRTLSVA as substrate by [gamma-33P]-ATP assay relative to control
TGF-beta receptor type-2 = TGF-beta receptor type-2 (Homo sapiens, UniProt P37173); test: Inhibition of human TGFBR2 assessed as residual activity at 1 uM using MBP as substrate by [gamma-33P]-ATP assay relative to control
[13] = biological target: Tyrosine-protein kinase TXK (Homo sapiens) (UniProt P42681); test: Inhibition of human TXK assessed as residual activity at 1 uM using EAIYAAPFAKKK as substrate by [gamma-33P]-ATP assay relative to control
[14] = biological target: Wee1-like protein kinase (Homo sapiens) (UniProt P30291); test: Inhibition of human WEE1 assessed as residual activity at 1 uM using MBP as substrate by [gamma-33P]-ATP assay relative to control
[15] = biological target: Cyclin-dependent kinase 1/cyclin B1 (Homo sapiens) (UniProt P06493+P14635); test: Inhibition of human CDK1/cyclinB assessed as residual activity at 1 uM using Histone H1 as substrate by [gamma-33P]-ATP assay relative to control; type: protein-complex assay
[16] = biological target: CDK7/Cyclin H/MNAT1 (Homo sapiens) (UniProt P51946+P50613+P51948); test: Inhibition of human CDK7/cyclin-H/MNAT1 assessed as residual activity at 1 uM using MBP as substrate by [gamma-33P]-ATP assay relative to control; type: protein-complex assay
[17] = biological target: Serine/threonine-protein kinase/endoribonuclease IRE1 (Homo sapiens) (UniProt O75460); test: Inhibition of human ERN1 assessed as residual activity at 1 uM using MBP as substrate by [gamma-33P]-ATP assay relative to control
[18] = biological target: Focal adhesion kinase 1 (Homo sapiens) (UniProt Q05397); test: Inhibition of human FAK assessed as residual activity at 1 uM using poly[Glu:Tyr] (4:1) as substrate by [gamma-33P]-ATP assay relative to control
[19] = biological target: Inhibitor of nuclear factor kappa-B kinase subunit epsilon (Homo sapiens) (UniProt Q14164); test: Inhibition of human IKKepsilon assessed as residual activity at 1 uM using casein as substrate by [gamma-33P]-ATP assay relative to control
[20] = biological target: Tyrosine-protein kinase JAK3 (Homo sapiens) (UniProt P52333); test: Inhibition of human JAK3 assessed as residual activity at 1 uM using poly[Glu:Tyr] (4:1) as substrate by [gamma-33P]-ATP assay relative to control
[21] = biological target: Dual specificity mitogen-activated protein kinase kinase 2 (Homo sapiens) (UniProt P36507); test: Inhibition of human MEK2 assessed as residual activity at 1 uM using ERK2 as substrate by [gamma-33P]-ATP assay relative to control
[22] = biological target: Serine/threonine-protein kinase D3 (Homo sapiens) (UniProt O94806); test: Inhibition of human PKCnu assessed as residual activity at 1 uM using KKLNRTLSVA as substrate by [gamma-33P]-ATP assay relative to control
[23] = biological target: High affinity nerve growth factor receptor (Homo sapiens) (UniProt P04629); test: Inhibition of human TRKA assessed as residual activity at 1 uM using poly[Glu:Tyr] (4:1) as substrate by [gamma-33P]-ATP assay relative to control
Sequence of High affinity nerve growth factor receptor (Homo sapiens) (P04629 33-796 limits assumed): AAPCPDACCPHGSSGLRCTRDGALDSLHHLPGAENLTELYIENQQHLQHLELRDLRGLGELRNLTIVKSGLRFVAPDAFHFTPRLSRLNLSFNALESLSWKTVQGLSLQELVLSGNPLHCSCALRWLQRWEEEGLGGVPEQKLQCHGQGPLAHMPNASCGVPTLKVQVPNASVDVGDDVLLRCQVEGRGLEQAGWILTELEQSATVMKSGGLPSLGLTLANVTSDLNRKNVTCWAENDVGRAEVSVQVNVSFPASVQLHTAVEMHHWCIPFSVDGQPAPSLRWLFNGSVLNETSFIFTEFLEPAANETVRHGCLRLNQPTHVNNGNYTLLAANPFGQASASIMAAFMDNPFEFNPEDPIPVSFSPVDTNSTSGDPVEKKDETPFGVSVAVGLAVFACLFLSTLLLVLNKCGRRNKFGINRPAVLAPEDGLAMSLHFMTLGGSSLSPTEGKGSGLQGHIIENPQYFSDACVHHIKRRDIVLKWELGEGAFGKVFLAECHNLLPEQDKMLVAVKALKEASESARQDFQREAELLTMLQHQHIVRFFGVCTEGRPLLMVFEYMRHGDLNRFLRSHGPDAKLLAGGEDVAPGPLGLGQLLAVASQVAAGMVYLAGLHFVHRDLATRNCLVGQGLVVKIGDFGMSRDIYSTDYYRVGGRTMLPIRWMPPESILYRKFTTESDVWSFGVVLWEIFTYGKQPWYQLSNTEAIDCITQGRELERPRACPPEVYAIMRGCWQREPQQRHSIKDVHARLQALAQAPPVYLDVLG

Sequence of Cyclin-dependent kinase 1/cyclin B1 (Homo sapiens) (P06493 whole entry, looked up): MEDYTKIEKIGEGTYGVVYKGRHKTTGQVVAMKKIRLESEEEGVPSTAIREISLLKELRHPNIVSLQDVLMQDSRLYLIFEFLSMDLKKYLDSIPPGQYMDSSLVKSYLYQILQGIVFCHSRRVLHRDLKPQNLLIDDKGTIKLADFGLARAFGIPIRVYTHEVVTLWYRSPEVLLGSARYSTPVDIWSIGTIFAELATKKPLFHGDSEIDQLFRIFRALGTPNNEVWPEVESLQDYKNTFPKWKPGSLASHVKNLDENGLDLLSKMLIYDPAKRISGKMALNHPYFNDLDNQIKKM
Sequence of Cyclin-dependent kinase 1/cyclin B1 (Homo sapiens) (P14635 whole entry, looked up): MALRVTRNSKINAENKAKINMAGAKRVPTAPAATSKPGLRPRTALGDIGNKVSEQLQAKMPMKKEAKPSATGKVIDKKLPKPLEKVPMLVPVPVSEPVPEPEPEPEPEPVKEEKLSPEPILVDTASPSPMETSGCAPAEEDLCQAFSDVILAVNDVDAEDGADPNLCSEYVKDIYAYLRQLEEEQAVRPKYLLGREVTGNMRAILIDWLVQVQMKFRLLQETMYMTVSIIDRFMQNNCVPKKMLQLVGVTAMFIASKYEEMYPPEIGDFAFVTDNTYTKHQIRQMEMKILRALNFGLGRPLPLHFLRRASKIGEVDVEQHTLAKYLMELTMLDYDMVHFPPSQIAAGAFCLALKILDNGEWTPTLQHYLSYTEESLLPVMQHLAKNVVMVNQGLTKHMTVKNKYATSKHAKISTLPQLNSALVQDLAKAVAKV
Sequence of Mitogen-activated protein kinase kinase kinase 9 (Homo sapiens) (P80192 whole entry, looked up): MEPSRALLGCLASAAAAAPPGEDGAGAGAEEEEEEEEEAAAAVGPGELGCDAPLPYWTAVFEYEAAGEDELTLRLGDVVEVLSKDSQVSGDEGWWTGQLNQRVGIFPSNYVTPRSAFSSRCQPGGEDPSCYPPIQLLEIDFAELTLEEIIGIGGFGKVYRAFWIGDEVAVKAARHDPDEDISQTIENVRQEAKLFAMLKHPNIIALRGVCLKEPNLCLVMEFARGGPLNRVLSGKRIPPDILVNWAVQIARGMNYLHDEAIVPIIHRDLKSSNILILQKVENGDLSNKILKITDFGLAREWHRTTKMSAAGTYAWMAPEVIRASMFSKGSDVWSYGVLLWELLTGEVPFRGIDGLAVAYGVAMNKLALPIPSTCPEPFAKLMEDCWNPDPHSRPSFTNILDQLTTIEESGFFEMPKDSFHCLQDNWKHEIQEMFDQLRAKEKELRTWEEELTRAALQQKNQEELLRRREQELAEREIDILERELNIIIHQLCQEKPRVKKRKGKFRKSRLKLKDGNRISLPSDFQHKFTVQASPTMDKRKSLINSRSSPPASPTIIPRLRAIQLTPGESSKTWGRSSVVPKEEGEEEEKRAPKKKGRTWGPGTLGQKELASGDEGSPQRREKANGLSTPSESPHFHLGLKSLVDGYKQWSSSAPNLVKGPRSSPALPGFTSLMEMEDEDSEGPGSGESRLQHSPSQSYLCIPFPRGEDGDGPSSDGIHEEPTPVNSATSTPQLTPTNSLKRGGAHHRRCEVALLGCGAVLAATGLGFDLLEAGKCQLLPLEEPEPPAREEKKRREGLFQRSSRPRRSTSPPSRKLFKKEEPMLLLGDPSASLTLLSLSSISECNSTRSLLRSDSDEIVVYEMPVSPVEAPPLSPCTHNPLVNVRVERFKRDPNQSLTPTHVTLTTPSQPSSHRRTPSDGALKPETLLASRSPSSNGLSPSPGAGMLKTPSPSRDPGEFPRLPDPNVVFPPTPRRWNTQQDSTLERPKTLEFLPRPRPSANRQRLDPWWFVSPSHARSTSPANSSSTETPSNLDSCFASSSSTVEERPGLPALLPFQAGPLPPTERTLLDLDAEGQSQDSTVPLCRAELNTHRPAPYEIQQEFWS
Sequence of TGF-beta receptor type-2 (P37173 whole entry): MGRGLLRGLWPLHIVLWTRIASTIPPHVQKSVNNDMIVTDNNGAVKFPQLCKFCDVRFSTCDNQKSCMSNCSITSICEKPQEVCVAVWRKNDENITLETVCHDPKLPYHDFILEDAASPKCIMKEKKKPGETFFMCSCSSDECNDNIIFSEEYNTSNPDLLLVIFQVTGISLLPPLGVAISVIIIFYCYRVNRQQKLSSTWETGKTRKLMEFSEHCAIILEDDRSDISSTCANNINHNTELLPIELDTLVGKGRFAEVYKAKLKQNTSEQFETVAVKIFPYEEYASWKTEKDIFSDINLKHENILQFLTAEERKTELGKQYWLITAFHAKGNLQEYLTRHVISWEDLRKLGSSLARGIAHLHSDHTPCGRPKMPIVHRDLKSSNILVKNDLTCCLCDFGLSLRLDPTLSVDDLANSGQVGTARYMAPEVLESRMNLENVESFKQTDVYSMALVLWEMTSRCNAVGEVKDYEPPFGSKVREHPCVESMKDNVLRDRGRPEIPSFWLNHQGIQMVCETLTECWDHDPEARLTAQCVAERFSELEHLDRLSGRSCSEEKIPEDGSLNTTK
Sequence of Dual specificity mitogen-activated protein kinase kinase 2 (Homo sapiens) (P36507 whole entry): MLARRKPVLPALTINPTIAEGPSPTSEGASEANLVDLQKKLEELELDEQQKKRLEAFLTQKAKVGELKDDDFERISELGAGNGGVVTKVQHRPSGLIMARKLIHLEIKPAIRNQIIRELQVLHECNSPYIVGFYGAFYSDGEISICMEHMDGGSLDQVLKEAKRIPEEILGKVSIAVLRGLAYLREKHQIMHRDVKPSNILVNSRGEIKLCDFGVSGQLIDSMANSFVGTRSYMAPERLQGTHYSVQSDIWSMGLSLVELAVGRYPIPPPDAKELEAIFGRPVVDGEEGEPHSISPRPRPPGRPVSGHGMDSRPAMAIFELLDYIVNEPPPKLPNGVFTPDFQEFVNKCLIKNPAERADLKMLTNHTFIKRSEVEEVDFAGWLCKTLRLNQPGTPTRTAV
Sequence of Inhibitor of nuclear factor kappa-B kinase subunit alpha (Homo sapiens) (O15111 whole entry): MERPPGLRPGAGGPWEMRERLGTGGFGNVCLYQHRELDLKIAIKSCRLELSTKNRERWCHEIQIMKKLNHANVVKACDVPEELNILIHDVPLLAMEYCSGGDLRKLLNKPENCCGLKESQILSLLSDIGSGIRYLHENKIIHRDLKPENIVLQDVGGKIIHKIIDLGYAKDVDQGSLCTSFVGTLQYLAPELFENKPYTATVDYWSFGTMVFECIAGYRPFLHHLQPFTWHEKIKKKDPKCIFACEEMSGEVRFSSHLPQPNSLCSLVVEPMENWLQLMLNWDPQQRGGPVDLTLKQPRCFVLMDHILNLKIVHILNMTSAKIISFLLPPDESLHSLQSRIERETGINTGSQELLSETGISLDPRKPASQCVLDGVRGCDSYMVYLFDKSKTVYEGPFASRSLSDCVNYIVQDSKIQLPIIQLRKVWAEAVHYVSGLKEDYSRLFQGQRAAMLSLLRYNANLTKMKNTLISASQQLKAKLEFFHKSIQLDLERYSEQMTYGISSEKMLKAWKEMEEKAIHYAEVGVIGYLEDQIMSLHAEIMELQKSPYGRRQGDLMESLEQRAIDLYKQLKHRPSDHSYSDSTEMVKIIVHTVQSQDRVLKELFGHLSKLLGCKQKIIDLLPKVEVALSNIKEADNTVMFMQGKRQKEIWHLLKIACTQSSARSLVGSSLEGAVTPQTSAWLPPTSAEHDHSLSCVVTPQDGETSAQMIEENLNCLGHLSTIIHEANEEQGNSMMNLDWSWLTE
Sequence of Inhibitor of nuclear factor kappa-B kinase subunit epsilon (Homo sapiens) (Q14164 whole entry): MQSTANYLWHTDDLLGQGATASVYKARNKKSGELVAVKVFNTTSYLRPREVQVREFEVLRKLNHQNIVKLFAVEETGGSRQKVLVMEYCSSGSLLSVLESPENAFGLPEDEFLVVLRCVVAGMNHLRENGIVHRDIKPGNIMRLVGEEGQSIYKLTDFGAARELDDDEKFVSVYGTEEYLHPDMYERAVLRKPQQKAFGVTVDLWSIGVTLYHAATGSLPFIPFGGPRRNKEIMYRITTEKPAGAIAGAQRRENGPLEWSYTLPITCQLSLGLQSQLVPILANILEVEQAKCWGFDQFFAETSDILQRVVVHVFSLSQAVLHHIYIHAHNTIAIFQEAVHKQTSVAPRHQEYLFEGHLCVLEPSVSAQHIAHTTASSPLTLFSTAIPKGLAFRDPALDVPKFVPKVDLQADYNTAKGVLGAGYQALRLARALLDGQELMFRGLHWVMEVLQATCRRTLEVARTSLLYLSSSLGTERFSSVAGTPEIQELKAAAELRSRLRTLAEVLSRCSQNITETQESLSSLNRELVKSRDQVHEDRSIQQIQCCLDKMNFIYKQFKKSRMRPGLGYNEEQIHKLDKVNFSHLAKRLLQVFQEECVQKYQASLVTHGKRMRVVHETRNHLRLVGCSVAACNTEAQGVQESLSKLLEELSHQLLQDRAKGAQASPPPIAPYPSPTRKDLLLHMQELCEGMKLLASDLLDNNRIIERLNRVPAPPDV

C(=C\c1ccccc1)/C[N+]12CN3CN(CN(C3)C1)C2
inhibition [1]: Active
inhibition [2]: Active
inhibition [3]: inactive
inhibition [4]: inactive
Activity [5]: 95.9 to 96%
Activity [6]: 95.2 to 95.6%
Activity [7]: 96.3 to 96.9%
Activity [8]: 94 to 95.2%
Activity [9]: 96.8%
Activity [10]: 107 to 112%
Activity [11]: 113 to 122%
Activity [12]: 87.8 to 90.1%
Activity (TGF-beta receptor type-2): 111 to 119%
Activity [13]: 93.5 to 93.8%
Activity [14]: 112 to 120%

ClC/C=C/C[N+]12CN3CN(CN(C3)C1)C2
Activity [15]: 94.3 to 96.5%
Activity [16]: 97.4 to 97.9%
Activity [17]: 92.5 to 94.8%
Activity [18]: 92.5 to 96%
Activity [19]: 111 to 113%
Activity [20]: 94.2 to 96.6%
Activity [21]: 85.2 to 94.1%
Activity [22]: 93.2 to 96.7%
Activity [23]: 94 to 94.8%
